Assay [1] addresses T1, partially purified aldose reductase enzyme obtained from human placenta (Homo sapiens, UniProt P15121).
T1 construct: partially purified aldose reductase enzyme obtained from human placenta; from tissue; host or cells: human placenta
The assay can be described thus: inhibition of aldose reductase enzyme activity (procedure of Hayman et al., modified by Sestanj et al.). The assay is classed as biochemical. The following applies: 10^-5M. The procedure:
The following spiro-3-heteroazolone compounds of Examples 4A, 4B, 6-9, 10A, 10B and 14, respectively, were tested for their ability to reduce or inhibit aldose reductase enzyme activity via the procedure of S. Hayman et al., as described in the Journal of Biological Chemistry, Vol. 240, p. 877 (1965) and as modified by K. Sestanj et al. in U.S. Patent No. 3,821,383. In every case, the substrate .employed was partially purified aldose reductase enzyme obtained from human placenta.

Assay [2] deals with sorbitol accumulation in the sciatic nerve and lens of streptozotocinized (i.e., diabetic) rats. Kind of assay: inhibition of sorbitol accumulation in sciatic nerve and lens of streptozotocinized rats. The assay is classed as in vivo. Conditions: for Percent Inhibition (%) Lens / Percent Inhibition (%) Sciatic Nerve: sorbitol measured at 27 hours. As to the method: The following spiro-3-heteroazolone compounds of Examples 4A, 4B, 6 and 10A, respectively, were tested for their ability to reduce or inhibit sorbitol accumulation in the sciatic nerve and lens of streptozotocinized (i.e., diabetic) rats by the procedure essentially described in U.S. Patent No. 3,821,383. In the present study, the amount of sorbitol accumulation in the sciatic nerve and lens of each test animal was measured 27 hours after induction of diabetes. The compounds were then administered orally at the dose levels indicated at 4, 8 and 24 hours following the administration of streptozotocin. The results obtained in this manner are presented below in terms of percent inhibition (%) afforded by the test compound as compared to the case where no compound was administered (i.e., the untreated animal where sorbitol levels normally rise from approximately 50-100 mM/g. tissue to as high as 400 mM/g. tissue in the 27-hour test period): […]

The mark [3] stands for this setting: 0.25 mg./kg. orally at 4, 8 and 24 hours after streptozotocin.
The mark [4] stands for this setting: 5.0 mg./kg. orally at 4, 8 and 24 hours after streptozotocin.
Where [5] appears, read: 1.0 mg./kg. orally at 4, 8 and 24 hours after streptozotocin.
Where [6] appears, read: 0.1 mg./kg. orally at 4, 8 and 24 hours after streptozotocin.

Broadly, the inhibition is the share of the control response that was lost under treatment. Low values mean a response near the control, high ones a response far below the control. As to `C[C@@H]1C[C@]2(NC(=O)NC2=O)c2cc(Cl)cnc2O1` (racemic) [Product of Example 4A, (±)-cis-8'-chloro-2',3'-dihydro-2'-methyl-spiro-[imidazolidine-4,4'-4'H-pyrano[2,3-b]pyridine]-2,5-dione], the inhibition at 10 µM in assay [1] is 83%. Moreover, the entries for the “Percent Inhibition (%) Lens” value in assay [2] (setting [3]) and in assay [2] (setting [4]) were 22% and 89%, respectively. Further, the entries for the “Percent Inhibition (%) Sciatic Nerve” value in assay [2] (setting [3]) and in assay [2] (setting [4]) were 34% and 98%, respectively.
The compound `CC1CC2(NC(=O)NC2=O)c2cc(Cl)cnc2O1` (racemic) [Product of Example 4B, (±)-trans-6'-chloro-2',3'-dihydro-2'-methyl-spiro-[imidazolidine-4,4'-4'H-pyrano[2,3-b]pyridine]-2,5-dione] came in with an inhibition at 10 µM in assay [1] of 77%. In assay [2] (setting [3]), the “Percent Inhibition (%) Lens” value is given as 32% and the “Percent Inhibition (%) Sciatic Nerve” value is given as 13%.
Consider `C[C@@H]1C[C@]2(NC(=O)NC2=O)c2cc(Br)cnc2O1` (racemic) [Product of Example 6, (±)-cis-6'-bromo-2',3'-dihydro-2'-methyl-spiro-[imidazolidine-4,4'-4'H-pyrano[2,3-b]pyridine]-2,5-dione], for which testing at 10 µM in assay [1] gave an inhibition of 80%. Moreover, in assay [2] (setting [5]), the “Percent Inhibition (%) Lens” value was 67% and the “Percent Inhibition (%) Sciatic Nerve” value is on record as 73%.
In assay [1], `O=C1NC(=O)C2(CCOc3ncc(Cl)cc32)N1` (racemic) [Product of Example 7, (±)-6-chloro-2',3'-dihydro-spiro-[imidazolidine-4,4'-4'H-pyrano[2,3-b]pyridine]-2,5-dione] showed an inhibition at 10 µM of 60%.
In assay [1], `C[C@@H]1C[C@]2(NC(=O)NC2=O)c2cccnc2O1` (racemic) [Product of Example 8, (±)-cis-2',3'-dihydro-2'methyl-spiro-[imidazolidine-4, 4'-4'H-pyrano[2,3-b]pyridine]-2,5-dione] came in with an inhibition at 10 µM of 57%.
The compound `C[C@@H]1C[C@]2(NC(=O)NC2=O)c2cc(F)cnc2O1` (racemic) [Product of Example 9, (±)-cis-6'-fluoro-2',3'-dihydro-2'-methyl-spiro-[imidazolidine-4,4'-4H-pyrano-[2,3-b]pyridine]-2,5-dione] yielded an inhibition at 10 µM in assay [1] of 77%.
As for `C[C@@H]1C[C@]2(NC(=O)NC2=O)c2cc(Cl)cnc2O1` [Product of Example 10A, (4'S)(2'R)-6'-chloro-2',3'-dihydro-2'-methyl-spiro-[imidazolidine-4,4'-4'H-pyrano[2,3-b]pyridine]-2,5-dione], in assay [1], the inhibition at 10 µM is 100%. Further, in assay [2] (setting [6]), the “Percent Inhibition (%) Lens” value is 33% and the “Percent Inhibition (%) Sciatic Nerve” value is on record as 43%. In assay [2] (setting [5]), the “Percent Inhibition (%) Lens” value stood at 73% and the “Percent Inhibition (%) Sciatic Nerve” value was determined as 78%. In addition, in assay [2] (oral route, dose levels ranging from 0.1-10.0 mg./kg., sciatic nerve and lens), the “inhibit the formation of sorbitol levels in both the sciatic nerve and lens of diabetic rats” value was “significantly high degree”.
Consider `C[C@H]1C[C@@]2(NC(=O)NC2=O)c2cc(Cl)cnc2O1` [Product of Example 10B, (2'S)(4'R)-6'-chloro-2',3^1-dihydro-2'-methyl-spiro-[imidazolidine-4,4'-4'H-pyrano[2,3-b]pyridine]-2,5-dione], for which 10 µM produced 100% inhibition in assay [1].
`C[C@@H]1C[C@]2(NC(=O)NC2=O)c2cc(Cl)c[n+]([O-])c2O1` [Product of Example 14, (4'S)(2'R)-6'-chloro-2',3'-dihydro-2'-methyl-spiro-[imidazolidine-4,4'-4'H-pyrano[2,3-b]pyridine]-2,5-dione-8'-oxide] had an inhibition at 10 µM in assay [1] of 79%.

The values are drawn from EP0306251A2, “Azolidinedione derivatives” (PFIZER INC., priority 1987, dated 1989).
